Experimental data taken from ChEMBL document CHEMBL1148089, “Inhibitors of protein tyrosine kinase pp60v-src: sterol sulfates from the brittle star Ophiarachna incrassata” (J Nat Prod, 1994).

Assay: Inhibition of Rous sarcoma virus v-Src

Structure (SMILES) | IC50 [µM]
CC(CCC[C@@H](C)[C@H]1CC[C@H]2[C@@H]3CC[C@H]4C[C@H](OS(=O)(=O)O)[C@@H](OS(=O)(=O)O)C[C@]4(C)[C@H]3CC[C@]12C)COS(=O)(=O)O (some centres not stated) | 11
CC(C)CCC[C@@H](COS(=O)(=O)O)[C@H]1CC[C@H]2[C@@H]3CC=C4C[C@H](OS(=O)(=O)O)CC[C@]4(C)[C@H]3CC[C@]12C | 31
C[C@@]12CCC(=O)c3coc(c31)C(=O)c1cc3c(O)ccc(O)c3cc12 [HELENAQUINOL] | 0.6
C[C@@]12CCC(=O)c3coc(c31)C(=O)c1cc3c(cc12)C(=O)C=CC3=O [HELENAQUINONE] | 1.5
CC(C)CCC[C@@H](COS(=O)(=O)O)[C@H]1CC[C@H]2[C@@H]3CC[C@@H]4[C@H](O)[C@H](OS(=O)(=O)O)CC[C@]4(C)[C@H]3[C@@H](O)C[C@]12C | 62
CC(CCC[C@@H](C)[C@H]1CC[C@H]2[C@@H]3CC=C4C[C@H](OS(=O)(=O)O)[C@@H](OS(=O)(=O)O)C[C@]4(C)[C@H]3CC[C@]12C)COS(=O)(=O)O (some centres not stated) | 12
CC(C)CCC[C@@H](COS(=O)(=O)O)[C@H]1CC[C@H]2[C@@H]3CC=C4C[C@H](OS(=O)(=O)O)C[C@@H](O)[C@]4(C)[C@H]3CC[C@]12C | 65
